Measured values from US9636347B2, “Sustained release formulations for the treatment of intraocular pressure or glaucoma” (Icon Bioscience, Inc., priority 2013, dated 2017).

Assays:
[1] = cited from earlier work
[2] = Solubility of latanoprost; type: physicochemical; conditions: 1%, 2% or 4% (w/w %) formulations, clear solution
Description: Latanoprost and other prostaglandin analogs are available commercially, for example, from Cayman Chemical (Ann Arbor, Mich.).
Liquid formulations of latanoprost and benzyl benzoate were made by weighing each component and mixing them together. Latanoprost is soluble in benzyl benzoate, yielding a clear solution. The formulations were either 1%, 2%, or 4% (w/w %) latanoprost.

solubility in benzyl benzoate [2]: soluble
SMILES: CC(C)OC(=O)CCC/C=C\C[C@@H]1[C@@H](CC[C@@H](O)CCc2ccccc2)[C@H](O)C[C@@H]1O [Latanoprost, isopropyl-(Z)7[(1R,2R,3R,5S)3,5-dihydroxy-2-[(3R)-3-hydroxy-5-phenylpentyl]cyclopentyl]-5-heptenoate]
solubility in acetone, ethanol, ethyl acetate, isopropanol, methanol, and octanol ([1]; acetone, ethanol, ethyl acetate, isopropanol, methanol, octanol): freely soluble
solubility in acetonitrile ([1]; acetonitrile): very soluble
solubility in water ([1]; water): practically insoluble
